In patent publication US6737383B1, “Herbicidal oxadiazolidines” (priority 1999, dated 2004):

Experiments:
[1] = test system: morningglory; test: Test B pre/postemergence morningglory; type: in vivo, Ipomoea hederacea
Procedure, shortened: (§1)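 Test chemicals in a non-phytotoxic solvent mixture with surfactant were sprayed preemergence onto planted seeds and postemergence onto plants 2 to 18 cm tall (1- to 4-leaf stage). After twelve to sixteen days in a greenhouse, injury was visually rated against untreated controls from 0 (no effect) to 10 (complete control).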

[2] = test system: pigweed; test: Test B pre/postemergence pigweed; type: in vivo, Amaranthus retroflexus
Procedure, shortened: as §1

[3] = test system: soybean; test: Test B pre/postemergence soybean; type: in vivo, Glycine max
Procedure, shortened: as §1

[4] = test system: rice; test: Test B flood test rice; type: in vivo, Oryza sativa
Procedure, shortened: (§2)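 Flood test on plants grown to the 2-leaf stage; treated plants kept in greenhouse twelve to sixteen days, then visually rated against controls on a 0 (no effect) to 10 (complete control) scale.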

[5] = test system: blackgrass; test: Test B pre/postemergence blackgrass; type: in vivo, Alopecurus myosuroides
Procedure, shortened: as §1

[6] = test system: purple nutsedge; test: Test B pre/postemergence purple nutsedge; type: in vivo, Cyperus rotundus
Procedure, shortened: as §1

[7] = test system: duck salad; test: Test B flood test duck salad; type: in vivo, Heteranthera limosa
Procedure, shortened: as §2

[8] = test system: corn; test: Test B pre/postemergence corn; type: in vivo, Zea mays
Procedure, shortened: as §1

[9] = test system: crabgrass; test: Test B pre/postemergence crabgrass; type: in vivo, Digitaria sanguinalis
Procedure, shortened: as §1

[10] = test system: sugar beet; test: Test B pre/postemergence sugar beet; type: in vivo, Beta vulgaris
Procedure, shortened: as §1

[11] = test system: wheat; test: Test B pre/postemergence wheat; type: in vivo, Triticum aestivum
Procedure, shortened: as §1

[12] = test system: smallflower flatsedge; test: Test B flood test smallflower flatsedge; type: in vivo, Cyperus difformis
Procedure, shortened: as §2

[13] = test system: giant foxtail; test: Test B pre/postemergence giant foxtail; type: in vivo, Setaria faberii
Procedure, shortened: as §1

[14] = test system: velvetleaf; test: Test B pre/postemergence velvetleaf; type: in vivo, Abutilon theophrasti
Procedure, shortened: as §1

[15] = test system: cocklebur; test: Test B pre/postemergence cocklebur; type: in vivo, Xanthium strumarium
Procedure, shortened: as §1

[16] = test system: rape; test: Test B pre/postemergence rape; type: in vivo, Brassica napus
Procedure, shortened: as §1

[17] = Preemergence, Rate 62 g/ha, scale of 0 to 10 where 0 is no effect and 10 is complete control
[18] = Preemergence, Rate 250 g/ha, scale of 0 to 10 where 0 is no effect and 10 is complete control
[19] = Preemergence, Rate 500 g/ha, scale of 0 to 10 where 0 is no effect and 10 is complete control
[20] = Rate 125 g/ha, Postemergence, scale of 0 to 10 where 0 is no effect and 10 is complete control
[21] = Rate 125 g/ha, Preemergence, scale of 0 to 10 where 0 is no effect and 10 is complete control
[22] = Rate 250 g/ha, Postemergence, scale of 0 to 10 where 0 is no effect and 10 is complete control
[23] = Rate 500 g/ha, Postemergence, scale 0 to 10, 0 no effect, 10 complete control
[24] = Rate 62 g/ha, headed Pre-emergence (flood test species), scale 0 to 10 (0 no effect, 10 complete control)
[25] = Rate 125 g/ha, Pre-emergence, flood test species, scale 0 to 10 where 0 is no effect and 10 is complete control
[26] = Rate 250 g/ha, Pre-emergence, flood-test species, scale 0 to 10, 0 is no effect, 10 is complete control
[27] = Rate 500 g/ha, Pre-emergence, flood test species, scale 0 to 10 (0 no effect, 10 complete control)
[28] = Rate 62 g/ha, Postemergence, scale of 0 to 10 where 0 is no effect and 10 is complete control

Q: How did the “Morningglory plant response rating” value [1, 17] turn out when `CC(C)N(C(=O)n1oc(=O)n(-c2ccsc2)c1=O)c1ccc(F)cc1` [Compound 272] was run?
A: 0

Q: What about the “Morningglory plant response rating” value [1, 18] of the same compound?
A: 0

Q: And the “Plant response rating, Morningglory” value [1, 19]?
A: 0

Q: And the “Morningglory plant response rating” value [1, 20]?
A: 1

Q: And the “Morningglory plant response rating” value [1, 21]?
A: 0

Q: What about the “Plant response rating, Morningglory” value [1, 22] of the same compound?
A: 1

Q: And the “Morningglory plant response rating” value [1, 23]?
A: 7

Q: And the “Redroot pigweed plant response rating” value [2, 17]?
A: 0

Q: What about the “Redroot pigweed plant response rating” value [2, 18] of the same compound?
A: 0

Q: And the “Plant response rating, Redroot pigweed” value [2, 19]?
A: 3

Q: And the “Redroot pigweed plant response rating” value [2, 20]?
A: 0

Q: And the “Redroot pigweed plant response rating” value [2, 21]?
A: 0

Q: What about the “Plant response rating, Redroot pigweed” value [2, 22] of the same compound?
A: 2

Q: And the “Redroot pigweed plant response rating” value [2, 23]?
A: 4

Q: What about the “Soybean plant response rating” value [3, 17] of the same compound?
A: 0

Q: What about the “Soybean plant response rating” value [3, 18] of the same compound?
A: 0

Q: What about the “Plant response rating, Soybean” value [3, 19] of the same compound?
A: 0

Q: And the “Soybean plant response rating” value [3, 20]?
A: 1

Q: What about the “Soybean plant response rating” value [3, 21] of the same compound?
A: 0

Q: What about the “Plant response rating, Soybean” value [3, 22] of the same compound?
A: 1

Q: What about the “Soybean plant response rating” value [3, 23] of the same compound?
A: 1

Q: What about the “Rice plant response rating” value [4, 24] of the same compound?
A: 0

Q: And the “Rice plant response rating” value [4, 25]?
A: 0

Q: What about the “Rice plant response rating” value [4, 26] of the same compound?
A: 0

Q: What about the “Rice plant response rating” value [4, 27] of the same compound?
A: 0

Q: And the “Blackgrass plant response rating” value [5, 17]?
A: 0

Q: What about the “Blackgrass plant response rating” value [5, 18] of the same compound?
A: 0

Q: What about the “Plant response rating, Blackgrass” value [5, 19] of the same compound?
A: 0

Q: And the “Blackgrass plant response rating” value [5, 28]?
A: 0

Q: And the “Blackgrass plant response rating” value [5, 20]?
A: 0

Q: And the “Blackgrass plant response rating” value [5, 21]?
A: 0

Q: And the “Plant response rating, Blackgrass” value [5, 22]?
A: 2

Q: And the “Blackgrass plant response rating” value [5, 23]?
A: 6

Q: And the “Nutsedge plant response rating” value [6, 17]?
A: 0

Q: What about the “Nutsedge plant response rating” value [6, 18] of the same compound?
A: 0

Q: What about the “Plant response rating, Nutsedge” value [6, 19] of the same compound?
A: 0

Q: What about the “Nutsedge plant response rating” value [6, 20] of the same compound?
A: 0

Q: What about the “Nutsedge plant response rating” value [6, 21] of the same compound?
A: 0

Q: What about the “Plant response rating, Nutsedge” value [6, 22] of the same compound?
A: 0

Q: What about the “Nutsedge plant response rating” value [6, 23] of the same compound?
A: 0

Q: What about the “Ducksalad plant response rating” value [7, 24] of the same compound?
A: 0

Q: And the “Ducksalad plant response rating” value [7, 25]?
A: 0

Q: And the “Ducksalad plant response rating” value [7, 26]?
A: 0

Q: What about the “Ducksalad plant response rating” value [7, 27] of the same compound?
A: 0

Q: What about the “Corn plant response rating” value [8, 17] of the same compound?
A: 0

Q: What about the “Corn plant response rating” value [8, 18] of the same compound?
A: 0

Q: What about the “Plant response rating, Corn” value [8, 19] of the same compound?
A: 0

Q: And the “Corn plant response rating” value [8, 28]?
A: 0

Q: And the “Corn plant response rating” value [8, 20]?
A: 0

Q: And the “Corn plant response rating” value [8, 21]?
A: 0

Q: What about the “Plant response rating, Corn” value [8, 22] of the same compound?
A: 0

Q: And the “Corn plant response rating” value [8, 23]?
A: 0

Q: What about the “Crabgrass plant response rating” value [9, 17] of the same compound?
A: 0

Q: And the “Crabgrass plant response rating” value [9, 18]?
A: 0

Q: What about the “Plant response rating, Crabgrass” value [9, 19] of the same compound?
A: 2

Q: And the “Crabgrass plant response rating” value [9, 20]?
A: 0

Q: What about the “Crabgrass plant response rating” value [9, 21] of the same compound?
A: 0

Q: What about the “Plant response rating, Crabgrass” value [9, 22] of the same compound?
A: 0

Q: And the “Crabgrass plant response rating” value [9, 23]?
A: 0

Q: What about the “Sugarbeets plant response rating” value [10, 17] of the same compound?
A: 0

Q: And the “Sugarbeets plant response rating” value [10, 18]?
A: 0

Q: What about the “Plant response rating, Sugarbeets” value [10, 19] of the same compound?
A: 0

Q: And the “Sugarbeets plant response rating” value [10, 20]?
A: 0

Q: What about the “Sugarbeets plant response rating” value [10, 21] of the same compound?
A: 0

Q: What about the “Plant response rating, Sugarbeets” value [10, 22] of the same compound?
A: 0

Q: What about the “Sugarbeets plant response rating” value [10, 23] of the same compound?
A: 0

Q: And the “Wheat plant response rating” value [11, 17]?
A: 0

Q: What about the “Wheat plant response rating” value [11, 18] of the same compound?
A: 0

Q: And the “Plant response rating, Wheat” value [11, 19]?
A: 0

Q: What about the “Wheat plant response rating” value [11, 20] of the same compound?
A: 0

Q: What about the “Wheat plant response rating” value [11, 21] of the same compound?
A: 0

Q: What about the “Plant response rating, Wheat” value [11, 22] of the same compound?
A: 0

Q: And the “Wheat plant response rating” value [11, 23]?
A: 0

Q: What about the “S. Flatsedge plant response rating” value [12, 24] of the same compound?
A: 0

Q: And the “S. Flatsedge plant response rating” value [12, 25]?
A: 0

Q: What about the “S. Flatsedge plant response rating” value [12, 26] of the same compound?
A: 0

Q: What about the “S. Flatsedge plant response rating” value [12, 27] of the same compound?
A: 0

Q: And the “Giant foxtail plant response rating” value [13, 17]?
A: 2

Q: And the “Giant foxtail plant response rating” value [13, 18]?
A: 6

Q: And the “Plant response rating, Giant foxtail” value [13, 19]?
A: 6

Q: And the “Giant foxtail plant response rating” value [13, 20]?
A: 0

Q: And the “Giant foxtail plant response rating” value [13, 21]?
A: 5

Q: What about the “Plant response rating, Giant foxtail” value [13, 22] of the same compound?
A: 0

Q: And the “Giant foxtail plant response rating” value [13, 23]?
A: 0

Q: What about the “Velvetleaf plant response rating” value [14, 17] of the same compound?
A: 0

Q: What about the “Velvetleaf plant response rating” value [14, 18] of the same compound?
A: 0

Q: And the “Plant response rating, Velvetleaf” value [14, 19]?
A: 0

Q: And the “Velvetleaf plant response rating” value [14, 20]?
A: 0

Q: What about the “Velvetleaf plant response rating” value [14, 21] of the same compound?
A: 0

Q: And the “Plant response rating, Velvetleaf” value [14, 22]?
A: 0

Q: And the “Velvetleaf plant response rating” value [14, 23]?
A: 0

Q: What about the “Cocklebur plant response rating” value [15, 17] of the same compound?
A: 0

Q: And the “Cocklebur plant response rating” value [15, 18]?
A: 0

Q: And the “Plant response rating, Cocklebur” value [15, 19]?
A: 0

Q: And the “Cocklebur plant response rating” value [15, 28]?
A: 0

Q: And the “Cocklebur plant response rating” value [15, 20]?
A: 0

Q: And the “Cocklebur plant response rating” value [15, 21]?
A: 0

Q: And the “Plant response rating, Cocklebur” value [15, 22]?
A: 1

Q: What about the “Cocklebur plant response rating” value [15, 23] of the same compound?
A: 1

Q: What about the “Rape plant response rating” value [16, 17] of the same compound?
A: 0

Q: What about the “Rape plant response rating” value [16, 18] of the same compound?
A: 0

Q: What about the “Plant response rating, Rape” value [16, 19] of the same compound?
A: 0

Q: What about the “Rape plant response rating” value [16, 20] of the same compound?
A: 0

Q: What about the “Rape plant response rating” value [16, 21] of the same compound?
A: 0

Q: And the “Plant response rating, Rape” value [16, 22]?
A: 0

Q: And the “Rape plant response rating” value [16, 23]?
A: 0
